Assay results: publication PMC11593814, “Novel Basidiomycetous Alcohol Oxidase from Cerrena unicolor—Characterisation, Kinetics, and Proteolytic Modifications” (International Journal of Molecular Sciences, 2024)

System: T1, alcohol oxidase (AOX) from Cerrena unicolor FCL139
T1 construct: native, semi-purified from mycelium (ammonium sulphate, HIC, SEC); octamer stated as typical; no tag
Experiment: acetylacetone assay ([…],5-diacetyl-1,4-dihydrolutidine), Michaelis-Menten non-linear fit
Format: biochemical
Details: semi-purified native enzyme; substrate 1-100 mM; pH and temperature of the kinetics not given

Compound | Km [mM]
COc1ccc(CO)cc1OC [Veratryl alcohol] | 31 ± 4
OC[C@H](O)C(O)[C@@H](O)CO [L-arabinitol] | 37 ± 3
CO [Methanol] | 13 ± 1
